We go through twelve molecules from ChEMBL document CHEMBL1201862, “PubChem BioAssay data set” (2004).

Test systems include CCRF-CEM; SNB-75; UACC-62; NCI-H226; M14; SR; IGROV-1; MCF7; HOP-92; CAKI-1; SK-MEL-2; UO-31; SN12C; MDA-N; SK-MEL-5; A498; SF-268; Hs-578T; Malme-3M.
Common to all, as to test: NCI anticancer screen, dose series, 48 h

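Cultured in 96-well plates, cells were exposed to test compound for 48 hours across five concentrations. GI50 marks 50% less growth.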 Calls of active or inactive are those of the source. Cut-off read from the data, not from the text of the source: active = GI50 up to about 1.1 µM and inactive = higher. Where only a bound is given, the exact number is not on record here.

As for `CC1(C)C2CCC(N)(C2)C1N` (configuration not stated), the GI50 with CCRF-CEM, with SNB-75, in the test with UACC-62, in the test with NCI-H226, with M14 and in the test with SR was > 100 µM (inactive) throughout. For the same molecule, the GI50 in the test on IGROV-1 was > 100 µM (inactive); in the test with MCF7, > 100 µM (inactive); with HOP-92, 21.1 µM (inactive); with CAKI-1, > 100 µM (inactive); with SK-MEL-2, > 100 µM (inactive); in the test on UO-31, > 100 µM (inactive). Moreover, the GI50 with SN12C, in the test on MDA-N, in the test with SK-MEL-5 and in the test on A498 was > 100 µM (inactive) each time.
As to `S=C(N/N=C(/c1ccccc1)c1ccccn1)N1CCCCCC1`, the GI50 in the test with CCRF-CEM was < 0.0133 µM (active); in the test on SNB-75, 0.036 µM (active); in the test on UACC-62 it was 0.0476 µM (active); in the test on NCI-H226, 0.0379 µM (active); in the test with SF-268, < 0.0391 µM (active); in the test with M14 it was 0.001 µM (active). Further, the GI50 in the test on IGROV-1 was < 0.0198 µM (active); in the test on MCF7, 0.0569 µM (active); with HOP-92, 0.55 µM (active); with CAKI-1, 0.0818 µM (active); in the test with SK-MEL-2, 0.489 µM (active); with UO-31, 0.0904 µM (active). Besides, the GI50 in the test with Hs-578T is 0.3 µM (active); with Malme-3M it was < 0.0295 µM (active); in the test with MDA-N it was < 0.044 µM (active); in the test with SK-MEL-5, < 0.0228 µM (active); in the test with A498, 0.269 µM (active).
With `N#CC1=C(N)OC(c2cccc([N+](=O)[O-])c2)C1(C#N)C#N` (configuration not stated), the GI50 is 0.78 µM (active) with SNB-75; 26.6 µM (inactive) in the test with UACC-62; 30.8 µM (inactive) in the test on NCI-H226; 26.5 µM (inactive) with SF-268; 25.8 µM (inactive) with M14; 17.6 µM (inactive) in the test on IGROV-1. The GI50 in the test with MCF7 is 20.8 µM (inactive); in the test with HOP-92, 16.8 µM (inactive); in the test with CAKI-1, 2.98 µM (inactive); in the test with SK-MEL-2, 21.3 µM (inactive); with UO-31, 17.9 µM (inactive); in the test on Hs-578T it was 84.3 µM (inactive). For the same molecule, the GI50 in the test with Malme-3M is 18.3 µM (inactive); in the test with SN12C, 33.2 µM (inactive); with MDA-N, 23.9 µM (inactive); in the test with SK-MEL-5 it was 18 µM (inactive); in the test with A498, 19.7 µM (inactive).
Turning to `CC1=CC(O)C(C(O)(C(F)(F)F)C(F)(F)F)C(C)(C)C1` (configuration not stated), the GI50 in the test on CCRF-CEM is > 10 µM (inactive); with SNB-75, > 10 µM (inactive); with UACC-62, > 10 µM (inactive); with NCI-H226, > 10 µM (inactive); with SF-268 it was > 10 µM (inactive); with M14, < 0.001 µM (active). Also, the GI50 was 0.188 µM (active) in the test with IGROV-1; > 10 µM (inactive) with MCF7; > 10 µM (inactive) in the test with HOP-92; > 10 µM (inactive) in the test on CAKI-1; > 10 µM (inactive) in the test on SK-MEL-2; > 10 µM (inactive) in the test with Hs-578T. The GI50 in the test with Malme-3M is > 10 µM (inactive); in the test with SN12C it was > 10 µM (inactive); with MDA-N, > 10 µM (inactive); in the test on SK-MEL-5, 0.0371 µM (active); in the test with A498 it was 0.0296 µM (active).
On to `COc1cc2c[n+](C)c3c4cc(OC)c(OC)cc4c(OC)cc3c2cc1OC`, for which the GI50 with CCRF-CEM was 6.1 µM (inactive); with SNB-75 it was 7.91 µM (inactive); in the test on UACC-62 it was 6.27 µM (inactive); in the test with NCI-H226, 1.36 µM (inactive); with SF-268, 0.0689 µM (active); in the test with M14, 30.5 µM (inactive). For the same molecule, the GI50 in the test with MCF7 was 2.17 µM (inactive); in the test on CAKI-1, > 100 µM (inactive); in the test on SK-MEL-2, 15.8 µM (inactive); in the test with UO-31 it was > 100 µM (inactive); with Hs-578T, 1.44 µM (inactive); in the test on Malme-3M it was 2.06 µM (inactive). For the same molecule, the GI50 was 0.188 µM (active) with SN12C, 6.32 µM (inactive) in the test on MDA-N, 2.77 µM (inactive) in the test on SK-MEL-5 and > 100 µM (inactive) with A498.
Turning to `COc1ccc(CCCNC(=O)Cc2ccccc2CO)cc1OC`, the GI50 with CCRF-CEM, with SNB-75, in the test on UACC-62, in the test with NCI-H226, in the test on M14 and in the test with SR was > 100 µM (inactive) throughout. Further, the GI50 in the test with IGROV-1, with HOP-92, with CAKI-1, in the test on SK-MEL-2, in the test on UO-31 and in the test on Hs-578T was > 100 µM (inactive) in each case. The GI50 with Malme-3M, in the test on SN12C, in the test with MDA-N, in the test on SK-MEL-5 and in the test on A498 was > 100 µM (inactive) each time.
As to `[N-]=[N+]=Nc1c(N2CCOCC2)c(Cl)nc2ccccc12`, the GI50 with CCRF-CEM was > 100 µM (inactive); with SNB-75 it was < 0.01 µM (active); with NCI-H226, 30.3 µM (inactive); in the test with SF-268, 37.5 µM (inactive); in the test on M14, 37.4 µM (inactive); with SR, 92.3 µM (inactive). In addition, the GI50 with IGROV-1 was 81.8 µM (inactive); in the test with HOP-92 it was 46.7 µM (inactive); in the test with CAKI-1 it was 60.5 µM (inactive); with SK-MEL-2, 39 µM (inactive); with UO-31, 33.6 µM (inactive); in the test on Hs-578T, 44.8 µM (inactive). Further, the GI50 is 41.5 µM (inactive) in the test with Malme-3M; 47.8 µM (inactive) in the test on SN12C; 48.8 µM (inactive) in the test with MDA-N; 20.7 µM (inactive) in the test on SK-MEL-5; 47.9 µM (inactive) in the test with A498.
Take `O=C1/C(=C/c2ccco2)N=C2Sc3c([nH]cnc3=O)N12`: the GI50 in the test with CCRF-CEM, in the test with SNB-75, in the test with NCI-H226, with SF-268, in the test with M14 and in the test on IGROV-1 was > 100 µM (inactive) each time. Moreover, the GI50 in the test on MCF7, in the test with HOP-92, with CAKI-1, in the test with SK-MEL-2, in the test on UO-31 and in the test with Hs-578T was > 100 µM (inactive) throughout. For the same molecule, the GI50 in the test with Malme-3M, in the test on SN12C, in the test on MDA-N, with SK-MEL-5 and in the test with A498 was > 100 µM (inactive) throughout.
Take `O=C(CC(=O)Nc1ccccc1Cl)NNC(Sc1ccccc1)c1cc(/N=N/c2ccc(Br)cc2)ccc1O` (configuration not stated): the GI50 in the test on CCRF-CEM was 0.409 µM (active); in the test on SNB-75 it was 4.8 µM (inactive); in the test with UACC-62 it was 1.17 µM (inactive); with NCI-H226 it was 1.67 µM (inactive); in the test with SF-268, 0.74 µM (active); in the test with M14, 0.785 µM (active). Besides, the GI50 is 2.71 µM (inactive) in the test with IGROV-1; 0.681 µM (active) with MCF7; 2.07 µM (inactive) in the test on HOP-92; 1.46 µM (inactive) with CAKI-1; 3.3 µM (inactive) in the test on SK-MEL-2; 1.14 µM (inactive) in the test on UO-31. For the same molecule, the GI50 in the test on Hs-578T is 3.13 µM (inactive); with Malme-3M, 2.12 µM (inactive); with SN12C, 2.22 µM (inactive); in the test on MDA-N, 2.06 µM (inactive); in the test with SK-MEL-5, 1.07 µM (active); in the test on A498, 2.39 µM (inactive).
For `O=C(CN1C(=O)c2ccccc2C1=O)OCC1CCCN2CCCCC12` (configuration not stated), the GI50 in the test on CCRF-CEM, in the test on SNB-75, with UACC-62, in the test with NCI-H226, with SF-268 and with MCF7 was > 100 µM (inactive) in each case. In addition, the GI50 with HOP-92, with CAKI-1, in the test on SK-MEL-2, with UO-31, with Hs-578T and in the test with Malme-3M was > 100 µM (inactive) throughout. In addition, the GI50 with SN12C, in the test with MDA-N, in the test on SK-MEL-5 and with A498 was > 100 µM (inactive) each time.
Regarding `Cc1cc(NS(=O)(=O)c2ccc(NC(=O)c3cccc4c(NNc5ccc(S(N)(=O)=O)cc5)c5ccccc5nc34)cc2)no1`, the GI50 with CCRF-CEM was 27.9 µM (inactive); in the test with SNB-75, 31.7 µM (inactive); in the test with UACC-62 it was 43.4 µM (inactive); with NCI-H226 it was 34 µM (inactive); in the test with SF-268, 34.9 µM (inactive); in the test with M14, 67.1 µM (inactive). In addition, the GI50 was 35.8 µM (inactive) with SR; 47.3 µM (inactive) in the test on IGROV-1; 81.3 µM (inactive) in the test with MCF7; 22.7 µM (inactive) in the test with HOP-92; > 100 µM (inactive) in the test on CAKI-1; 24 µM (inactive) in the test on SK-MEL-2. The GI50 in the test on UO-31 was 36.1 µM (inactive); in the test with Malme-3M, 45.9 µM (inactive); with SN12C, 49.9 µM (inactive); in the test on MDA-N it was 52.1 µM (inactive); with SK-MEL-5 it was 39.5 µM (inactive).
On to `Cc1ccc(N(Cc2ccccc2)Cc2ccccc2)cc1`, for which the GI50 with CCRF-CEM is 28 µM (inactive); in the test with SNB-75 it was 68.7 µM (inactive); in the test with UACC-62, 82.4 µM (inactive); in the test on NCI-H226, > 100 µM (inactive); in the test with SF-268, 50.1 µM (inactive); in the test on M14, 55.2 µM (inactive). Besides, the GI50 with IGROV-1 is 23.7 µM (inactive); in the test on MCF7 it was 37.8 µM (inactive); with CAKI-1, 47.9 µM (inactive); in the test on SK-MEL-2, 24.3 µM (inactive); with UO-31, 48.4 µM (inactive); in the test with Hs-578T it was 40.5 µM (inactive). Also, the GI50 with Malme-3M is 17 µM (inactive); with SN12C, 72.3 µM (inactive); in the test with MDA-N, 33.8 µM (inactive); with SK-MEL-5, 32.1 µM (inactive); with A498 it was 61.4 µM (inactive).
